Reference: paper PMC3538380 (Stem cells (Dayton, Ohio), 2013)

Assays:
[1] = target: GAPDH in GSC11 cells (Homo sapiens, UniProt P04406); assay: GAPDH activity in lysate of treated cells, NADH fluorescence; assay type: cell-based
[2] = target: purified GAPDH enzyme from rabbit muscle (Oryctolagus cuniculus, UniProt P46406); assay: GAPDH enzymatic assay, NADH fluorescence; assay type: biochemical
Sequence of purified GAPDH enzyme from rabbit muscle (P46406 whole entry): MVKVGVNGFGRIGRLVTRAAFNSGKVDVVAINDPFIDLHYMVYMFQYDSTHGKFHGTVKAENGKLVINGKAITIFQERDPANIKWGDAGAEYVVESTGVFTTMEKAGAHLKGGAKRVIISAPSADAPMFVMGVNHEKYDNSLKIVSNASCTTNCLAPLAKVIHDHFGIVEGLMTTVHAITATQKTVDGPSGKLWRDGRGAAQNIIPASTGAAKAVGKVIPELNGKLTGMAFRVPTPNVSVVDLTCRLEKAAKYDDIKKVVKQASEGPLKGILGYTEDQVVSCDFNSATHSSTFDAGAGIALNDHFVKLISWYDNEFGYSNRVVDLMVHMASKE

Sequence of GAPDH in GSC11 cells (P04406 2-335): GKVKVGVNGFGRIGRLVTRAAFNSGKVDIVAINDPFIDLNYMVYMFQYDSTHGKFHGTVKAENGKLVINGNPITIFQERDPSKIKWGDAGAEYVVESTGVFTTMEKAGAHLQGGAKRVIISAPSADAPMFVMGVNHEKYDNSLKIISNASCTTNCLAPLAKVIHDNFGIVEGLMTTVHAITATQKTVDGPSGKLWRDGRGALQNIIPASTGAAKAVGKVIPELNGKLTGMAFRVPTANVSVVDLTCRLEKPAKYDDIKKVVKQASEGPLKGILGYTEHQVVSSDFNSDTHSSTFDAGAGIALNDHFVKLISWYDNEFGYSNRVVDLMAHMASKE

inhibition at 10 µM ([1]; read-out: % inhibition at 10 μM) [%] | Structure (SMILES) | IC50 [2] [µM] | inhibition at 200 µM ([1]; read-out: % inhibition at 200 μM) [%]
~60 | CCCOC(=O)C(=O)CBr [3-BrOP, 3-bromo-2-oxopropionate-1-propyl ester] | ~10 | –
– | O=NN(CCCl)C(=O)NCCCl [BCNU] | ~200 | ~60
